This passage reports IC50 results from patent publication US10752632B2, “6-fluoro 2-methylbenzo[d]thiazol-5-yl compounds” (Eli Lilly and Company, priority 2018, dated 2020).

Structures are written as SMILES.

The target in the assay is full-length human O-GlcNAc-β-N-acetylglucosaminidase (OGA) (Homo sapiens (Human), UniProt O60502). Put plainly: In Vitro Human OGA Enzyme Assay. It is filed as biochemical. The conditions noted are these: His-OGA enzyme, FD-GlcNAc substrate 6.7 μM, 30 min pre-incubation, 60 min at room temperature, pH 7. How it is done: In Vitro Human OGA Enzyme Assay
full-length human O-GlcNAc-β-N-acetylglucosaminidase (OGA), sequence (O60502 whole entry): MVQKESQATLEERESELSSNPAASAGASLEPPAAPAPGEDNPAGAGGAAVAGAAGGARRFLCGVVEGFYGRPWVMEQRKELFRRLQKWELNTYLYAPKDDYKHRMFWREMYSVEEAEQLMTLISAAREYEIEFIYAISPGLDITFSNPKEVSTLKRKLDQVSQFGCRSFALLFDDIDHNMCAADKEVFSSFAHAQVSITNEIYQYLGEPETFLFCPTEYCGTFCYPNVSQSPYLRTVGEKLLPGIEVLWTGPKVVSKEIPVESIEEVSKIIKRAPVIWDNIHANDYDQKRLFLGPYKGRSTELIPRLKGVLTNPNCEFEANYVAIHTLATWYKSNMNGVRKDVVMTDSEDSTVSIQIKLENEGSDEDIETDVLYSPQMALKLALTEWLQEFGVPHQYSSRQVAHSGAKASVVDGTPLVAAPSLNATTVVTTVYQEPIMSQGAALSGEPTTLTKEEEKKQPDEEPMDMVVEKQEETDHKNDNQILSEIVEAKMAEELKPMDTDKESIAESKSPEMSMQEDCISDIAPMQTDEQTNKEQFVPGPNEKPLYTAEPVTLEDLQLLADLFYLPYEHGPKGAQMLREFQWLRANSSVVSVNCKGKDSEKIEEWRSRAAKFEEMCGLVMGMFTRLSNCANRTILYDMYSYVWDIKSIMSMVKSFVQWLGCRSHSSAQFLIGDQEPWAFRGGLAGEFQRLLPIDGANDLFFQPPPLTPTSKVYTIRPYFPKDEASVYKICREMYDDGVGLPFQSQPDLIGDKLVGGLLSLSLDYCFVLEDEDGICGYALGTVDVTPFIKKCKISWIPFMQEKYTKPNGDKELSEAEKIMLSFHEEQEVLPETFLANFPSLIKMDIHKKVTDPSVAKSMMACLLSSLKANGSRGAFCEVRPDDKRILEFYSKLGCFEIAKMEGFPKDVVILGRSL
The nucleotide sequence encoding full-length human O-GlcNAc-β-N-acetylglucosaminidase (NM_012215) is inserted into pFastBac1 (Invitrogen) vector with an N-terminal poly-histidine (HIS) tag. Baculovirus generation is carried out according to the Bac-to-Bac Baculovirus Expression system (Invitrogen) protocol. Sf9 cells are infected at 1.5×10^6 cells/mL using 10 mL of P1 virus per Liter of culture and incubated at 28° C. for 48 hrs. Cells are spun down, rinsed with PBS and the pellets stored at −80° C. The above OGA protein (His-OGA) is purified as follows: 4 L of cells are lysed in 200 mL of buffer containing 50 mM Tris, pH 8.0, 300 mM NaCl, 10% glycerol, 10 mM imidazole, 1 mM dithiothreitol (DTT), 0.1% Triton™ X-100, 4 tablets of protease inhibitors (complete EDTA-Free, Roche) for 45 min at 4° C. This cell lysate is then spun for 40 min at 16500 rpm at 4° C., and supernatant incubated with 6 mL of Ni-NTA resin (nickel-nitrilotriacetic acid) for 2 h at 4° C.
Resin is then packed onto column and washed with 50 mM Tris, pH 8.0, 300 mM NaCl, 10% glycerol, 10 mM imidazole, 0.1% Triton™ X-100, 1 mM DTT, followed by 50 mM Tris, pH 8.0, 150 mM NaCl, 10 mM imidazole, 10% glycerol, 1 mM DTT. The proteins are eluted with 50 mM Tris, pH 8.0, 150 mM NaCl, 300 mM imidazole, 10% glycerol, 1 mM DTT. Pooled His-OGA containing fractions are concentrated to 6 ml and loaded onto Superdex75 (16/60). The protein is eluted with 50 mM Tris, pH 8.0, 150 mM NaCl, 10% glycerol, 2 mM DTT. Fractions containing His-OGA are pooled and protein concentration measured with BCA ([…]).
The OGA enzyme catalyses the removal of O-GlcNAc from nucleocytoplasmic proteins. To measure this activity Fluorescein di-N-acetyl-β-N-acetyl-D-glucosaminide (FD-GlcNAc, Kim, Eun Ju; Kang, Dae Ook; Love, Dona C.; Hanover, John A. Carbohydrate Research (2006), 341(8), 971-982) is used as a substrate at a final concentration of 6.7 μM. This fluorogenic substrate becomes fluorescent upon cleavage by OGA, so that the enzyme activity can be measured by the increase in fluorescence detected at 535 nm (excitation at 485 nm).
The assay buffer is prepared to give a final concentration of 50 mM […], 0.01% bovine serum albumin and 0.01% Triton™ X-100 in water, at pH 7. Compounds to be tested are diluted in pure dimethyl sulfoxide (DMSO) using ten point concentration response curves. Maximal compound concentration in the reaction mixture is 30 or 1 μM. Compounds at the appropriate concentration are pre-incubated with OGA enzyme for 30 minutes before the reaction is started by the addition of substrate. The final enzyme concentration is 3.24 nM or 0.5 nM, for the 30 or 1 μM maximal compound concentration, respectively. Reactions are allowed to proceed for 60 min at room temperature. Then, without stopping the reaction, fluorescence is read. IC50 values are calculated by plotting the normalized data vs. log of the compound and fitting the data using a four parameter logistic equation.
The compounds of Examples 1 through 6 were tested essentially as described above.
Usually IC50 stands for the midpoint of a concentration-inhibition curve. A lower IC50 goes with greater potency. Compound `CC(=O)N1Cc2cnc(O[C@@H]3C[C@H](C)N(Cc4cc5nc(C)sc5cc4F)C3)cc2C1` [Example 3, 1-[6-[(3R,5S)-1-[(6-fluoro-2-methyl-1,3-benzothiazol-5-yl)methyl]-5-methyl-pyrrolidin-3-yl]oxy-1,3-dihydropyrrolo[3,4-c]pyridin-2-yl]ethanone] had an IC50 of 0.782 ± 0.087 nM.

With `CC(=O)N1Cc2ccc(O[C@@H]3C[C@H](C)N([C@@H](C)c4cc5nc(C)sc5cc4F)C3)nc2C1` [Example 6, 1-[2-[(3R,5S)-1-[(1S)-1-(6-fluoro-2-methyl-1,3-benzothiazol-5-yl)ethyl]-5-methyl-pyrrolidin-3-yl]oxy-5,7-dihydropyrrolo[3,4-b]pyridin-6-yl]ethanone], the IC50 was found to be 0.385 ± 0.088 nM. The value for `CC(=O)N1Cc2cnc(O[C@@H]3C[C@H](C)N([C@@H](C)c4cc5nc(C)sc5cc4F)C3)nc2C1` [Example 5, 1-[2-[(3R,5S)-1-[(1S)-1-(6-fluoro-2-methyl-1,3-benzothiazol-5-yl)ethyl]-5-methyl-pyrrolidin-3-yl]oxy-5,7-dihydropyrrolo[3,4-d]pyrimidin-6-yl]ethanone] was 0.495 ± 0.109 nM; that for `CC(=O)N1Cc2cnc(O[C@@H]3C[C@H](C)N(Cc4cc5nc(C)sc5cc4F)C3)nc2C1` [Example 1, 1-(2-(((3R,5S)-1-((6-fluoro-2-methylbenzo[d]thiazol-5-yl)methyl)-5-methylpyrrolidin-3-yl)oxy)-5,7-dihydro-6H-pyrrolo[3,4-d]pyrimidin-6-yl)ethan-1-one] was 0.465 ± 0.224 nM; that for `CC(=O)N1Cc2ccc(O[C@@H]3C[C@H](C)N(Cc4cc5nc(C)sc5cc4F)C3)nc2C1` [Example 2, 1-(2-(((3R,5S)-1-((6-fluoro-2-methylbenzo[d]thiazol-5-yl)methyl)-5-methylpyrrolidin-3-yl)oxy)-5,7-dihydro-6H-pyrrolo[3,4-b]pyridin-6-yl)ethan-1-one] was 0.214 ± 0.037 nM. The value for `CC(=O)N1Cc2cc(O[C@@H]3C[C@H](C)N(Cc4cc5nc(C)sc5cc4F)C3)cnc2C1` [Example 4, 1-[3-[(3R,5S)-1-[(6-fluoro-2-methyl-1,3-benzothiazol-5-yl)methyl]-5-methyl-pyrrolidin-3-yl]oxy-5,7-dihydropyrrolo[3,4-b]pyridin-6-yl]ethanone] was 0.592 ± 0.068 nM.
